Structures are written as SMILES. pEC50, pIC50: −log10 of the molar value.

As a reminder, the pEC50 is −log10 of the EC50, conventionally taken in molar units. A word on the pIC50: it is −log10 of the IC50, conventionally taken in molar units.

One experiment deals with T1, Peroxisome proliferator-activated receptor gamma (Homo sapiens, UniProt P37231).
T1 sequence (P37231 whole entry): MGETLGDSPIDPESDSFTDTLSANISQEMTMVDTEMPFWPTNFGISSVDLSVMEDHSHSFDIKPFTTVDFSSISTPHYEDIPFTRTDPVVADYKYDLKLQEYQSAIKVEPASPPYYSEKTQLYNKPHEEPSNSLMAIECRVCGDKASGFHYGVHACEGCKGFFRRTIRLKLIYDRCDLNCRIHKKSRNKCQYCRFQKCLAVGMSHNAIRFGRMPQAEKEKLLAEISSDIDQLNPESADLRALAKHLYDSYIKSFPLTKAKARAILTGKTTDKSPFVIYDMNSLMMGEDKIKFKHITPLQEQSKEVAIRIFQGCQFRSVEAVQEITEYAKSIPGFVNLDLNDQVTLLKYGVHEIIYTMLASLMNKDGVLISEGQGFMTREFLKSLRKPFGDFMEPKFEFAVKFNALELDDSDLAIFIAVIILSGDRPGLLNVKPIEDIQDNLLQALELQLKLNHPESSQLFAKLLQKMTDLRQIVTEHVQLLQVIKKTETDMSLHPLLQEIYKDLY
The experiment is described as follows: Partial agonist activity at human PPARgamma-LBD expressed in HEK293T cells assessed as induction of receptor transactivation after 24 hrs by luciferase reporter gene assay. It is filed as functional, cell-based, HEK-293T. (In general: In a reporter assay the amount or activity of a reporter protein is the signal.)
With `O=C(Oc1ccc([N+](=O)[O-])cc1)c1cn(-c2ccccc2)nc1-c1ccccc1`, the pEC50 is 5.64.

A further experiment addresses T1, Peroxisome proliferator-activated receptor gamma. The experiment is described as follows: Displacement of fluormone PPAR-green from N-terminal His-tagged human PPARgamma-LBD after 2 hrs by fluorescence polarization assay. (Fluorescence polarisation rises when a labelled molecule tumbles more slowly, as on binding a larger partner.)
`O=C(Oc1ccc([N+](=O)[O-])cc1)c1cn(-c2ccccc2)nc1-c1ccccc1` showed a pIC50 of 6.01.

The target of another experiment is T2, Peroxisome proliferator-activated receptor gamma (Homo sapiens) (UniProt P37231).
T2 sequence (whole entry): T1 sequence (P37231 whole entry)
As to the kind of experiment: Displacement of fluormone PPAR-green from N-terminal His-tagged human PPARgamma-LBD assessed as logarithm unit binding affinity value at 10 uM after 2 hrs by fluorescence polarization assay.
Consider `O=C(Oc1ccc([N+](=O)[O-])cc1)c1cn(-c2ccccc2)nc1-c1ccccc1`, for which the binding affinity worked out at 1.9.
On the same count and under the same terms, the value for `O=C(Oc1cccc2cccnc12)c1cn(-c2ccccc2)nc1-c1ccccc1` was 1.52; that for `O=C(Oc1ccccc1)c1cn(-c2ccccc2)nc1-c1ccc(F)cc1` was 1.55.
Consider `COc1cc(C=O)ccc1OC(=O)c1cn(-c2ccccc2)nc1-c1ccc(F)cc1`, for which the binding affinity worked out at 1.82.
Same read-out and setting: the value for `O=C(Oc1ccccc1)c1cn(-c2ccccc2)nc1-c1cccc([N+](=O)[O-])c1` was 1.38; that for `Cc1ccc(-c2nn(-c3ccccc3)cc2C(=O)Oc2ccccc2)cc1` was 1.31.
Same read-out and setting: the value for `S=C(NCc1ccco1)NCc1cn(-c2ccccc2)nc1-c1ccccc1` was 1.73.
Still for that read-out and setting: then `O=C(COC(=O)c1cn(-c2ccccc2)nc1-c1ccccc1)c1ccc(Cl)c([N+](=O)[O-])c1`, with 1.98.
For the compound `CC(=O)c1ccc(OC(=O)c2cn(-c3ccccc3)nc2-c2ccccc2)cc1`, the binding affinity was found to be 1.38.
Still for that read-out and setting: then `Cc1ccc(-c2nn(-c3ccccc3)cc2C(=O)NCC(=O)c2ccccc2)cc1`, with 1.26.
On the same count and under the same terms, the value for `COc1cc(C=O)ccc1OC(=O)c1cn(-c2ccccc2)nc1-c1ccc(C)cc1` was 1.81; that for `CC(=O)Nc1ccc(OC(=O)c2cn(-c3ccccc3)nc2-c2ccccc2)cc1` was 1.58.
`COc1cc(C=O)ccc1OC(=O)c1cn(-c2ccccc2)nc1-c1ccc(Br)cc1`: the binding affinity is 1.73.
Same read-out and setting: the value for `COc1ccc(-c2nn(-c3ccccc3)cc2C(=O)OCC(=O)c2ccccc2Cl)cc1` was 1.37; that for `COc1ccc(-c2nn(-c3ccccc3)cc2C(=O)Oc2ccc(C=O)cc2OC)cc1OC` was 1.82; that for `COc1ccc(-c2nn(-c3ccccc3)cc2C(=O)OCC(=O)c2ccc([N+](=O)[O-])cc2)cc1` was 1.57.
Same read-out and setting: then `COc1ccc(-c2nn(-c3ccccc3)cc2C(=O)Oc2ccccc2)cc1`, with 1.45; and `COc1ccc(-c2nn(-c3ccccc3)cc2C(=O)OCC(=O)c2ccc(C)c([N+](=O)[O-])c2)cc1`, with 1.05.
The same measure, in the same setting: the value for `COc1ccc(-c2nn(-c3ccccc3)cc2C(=O)Oc2ccc(C)cc2)cc1OC` was 1.85; that for `CC(C)S(=O)(=O)c1ccc(COC(=O)c2cn(-c3ccccc3)nc2-c2ccccc2)cc1` was 1.72; that for `O=C(Oc1ccccc1)c1cn(-c2ccccc2)nc1-c1ccccc1` was 1.63.
Regarding `O=C(OCc1ccc([N+](=O)[O-])cc1)c1cn(-c2ccccc2)nc1-c1ccccc1`, the binding affinity amounted to 1.38.
Same read-out and setting: then `O=C(COC(=O)c1cn(-c2ccccc2)nc1-c1ccc(Cl)cc1)c1ccccc1`, with 1.15; and `O=C(N/N=C/c1cn(-c2ccccc2)nc1-c1ccc(F)cc1)C(O)c1ccccc1` (stereo not drawn), with 1.68.
On the same count and under the same terms, the value for `Fc1ccc(-c2nn(-c3ccccc3)cc2CNCc2ccccc2)cc1` was 1.63; that for `COc1ccc(-c2nn(-c3ccccc3)cc2C(=O)Oc2ccccc2)cc1OC` was 1.64.
Still for that read-out and setting: then `COc1ccc(-c2nn(-c3ccccc3)cc2C(=O)OCC(=O)c2ccc(Cl)cc2)cc1`, with 1.42.
For the compound `COc1cc(C=O)ccc1OC(=O)c1cn(-c2ccccc2)nc1-c1ccc(C2COCCO2)cc1` (stereo not drawn), the binding affinity was 1.5.
On to `COc1ccc(-c2nn(-c3ccccc3)cc2C(=O)OCC(=O)c2ccc(Br)cc2)cc1`, for which the binding affinity was 1.2.
Take `O=C(Oc1ccccc1)c1cn(-c2ccccc2)nc1-c1ccc(Cl)cc1`: the binding affinity is 1.15.
Turning to `COc1cc(C=O)ccc1OC(=O)c1cn(-c2ccccc2)nc1-c1ccccc1`, the binding affinity came out at 1.99.
Still for that read-out and setting: the value for `COc1cc(C=O)ccc1OC(=O)c1cn(-c2ccccc2)nc1-c1ccc([N+](=O)[O-])cc1` was 1.35; that for `COc1cc(C=O)ccc1OC(=O)c1cn(-c2ccccc2)nc1-c1ccc(OC)c([N+](=O)[O-])c1` was 1.36.
Still for that read-out and setting: then `O=C(Oc1ccccc1)c1cn(-c2ccccc2)nc1-c1ccc(Br)cc1`, with 1.22; and `O=C(N/N=C/c1cn(-c2ccccc2)nc1-c1ccccc1)c1ccc([N+](=O)[O-])cc1`, with 1.37; and `COc1cc(C=O)ccc1OC(=O)c1cn(-c2ccccc2)nc1-c1ccc(Cl)cc1`, with 1.81.

The values are drawn from ChEMBL document CHEMBL1629419, “1,3-Diphenyl-1H-pyrazole derivatives as a new series of potent PPARγ partial agonists” (Bioorg Med Chem, 2010).
